The structures appear in SMILES notation. pIC50: −log10 of the molar value.

The target of this assay is T1, Glycogen phosphorylase, liver form (Rattus norvegicus, UniProt P09811).
T1 sequence (P09811 whole entry): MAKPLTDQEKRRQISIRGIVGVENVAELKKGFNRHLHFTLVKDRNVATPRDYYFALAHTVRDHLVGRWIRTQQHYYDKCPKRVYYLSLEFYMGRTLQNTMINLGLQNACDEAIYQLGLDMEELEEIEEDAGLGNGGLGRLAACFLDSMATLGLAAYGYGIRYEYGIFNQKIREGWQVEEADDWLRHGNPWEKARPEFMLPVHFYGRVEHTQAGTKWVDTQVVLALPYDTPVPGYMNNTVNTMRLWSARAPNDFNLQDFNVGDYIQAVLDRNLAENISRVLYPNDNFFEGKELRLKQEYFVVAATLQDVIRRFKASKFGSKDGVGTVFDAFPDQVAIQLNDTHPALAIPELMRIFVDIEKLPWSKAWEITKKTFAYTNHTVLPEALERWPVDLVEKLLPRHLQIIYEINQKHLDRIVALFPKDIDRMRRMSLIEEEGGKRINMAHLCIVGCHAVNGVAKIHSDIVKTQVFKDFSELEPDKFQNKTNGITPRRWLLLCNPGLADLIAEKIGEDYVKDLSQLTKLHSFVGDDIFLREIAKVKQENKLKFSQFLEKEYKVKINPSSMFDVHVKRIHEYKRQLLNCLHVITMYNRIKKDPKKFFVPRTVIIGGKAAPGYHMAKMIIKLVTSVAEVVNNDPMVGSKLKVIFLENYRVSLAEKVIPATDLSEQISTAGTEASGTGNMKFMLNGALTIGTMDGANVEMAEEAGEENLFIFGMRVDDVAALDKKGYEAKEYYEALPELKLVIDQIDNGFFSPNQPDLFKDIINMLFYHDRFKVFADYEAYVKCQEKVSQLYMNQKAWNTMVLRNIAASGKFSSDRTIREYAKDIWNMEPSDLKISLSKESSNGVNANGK
Kind of assay: Inhibitory concentration against rat liver glycogen phosphorylase.
On to `Cn1c(=O)c2c(ncn2C)n(C)c1=O` [CAFFEINE], for which the pIC50 is 3.19.

`C[C@H]1[C@H](C)CC[C@]2(C(=O)O)CC[C@]3(C)C(=CC[C@@H]4[C@@]5(C)C[C@@H](O)[C@H](O)C(C)(C)[C@@H]5CC[C@]43C)[C@H]12` [COROSOLIC ACID] had a negative logarithm of the IC50 (pIC50) of 4.00.

The molecule `CC1(C)CC[C@]2(C(=O)O)CC[C@]3(C)C(=CC[C@@H]4[C@@]5(C)C[C@@H](O)[C@H](O)C(C)(C)[C@@H]5CC[C@]43C)[C@@H]2C1` [MASLINIC ACID] had a pIC50 of 4.00.

For the origin of these results see ChEMBL document CHEMBL1143491, “Pentacyclic triterpenes. Part 1: the first examples of naturally occurring pentacyclic triterpenes as a new class of inhibitors of glycogen phosphorylases” (Bioorg Med Chem Lett, 2005).
